Results as given in patent US8952024B2, “Herbicidal pyrimidone derivatives” (E I du Pont de Nemours and Company, priority 2009, dated 2015).

Assays:
Type in all cases: in vivo
[1] = tested on: giant foxtail (Setaria faberii); assay: Test A pre-/postemergence plant response
Procedure, shortened: (§1)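 Seeds planted in loam soil/sand blend; test chemicals in non-phytotoxic solvent mixture with surfactant applied as directed soil spray preemergence and, concurrently, postemergence to plants 2–10 cm tall at one- to two-leaf stage. Greenhouse ~10 days; visual injury vs untreated controls, 0 (no effect) to 100 (complete control).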

[2] = tested on: morningglory (Ipomoea spp.); assay: Test A pre-/postemergence plant response
Procedure, shortened: as §1

[3] = tested on: barnyardgrass (Echinochloa crus-galli); assay: Test A pre-/postemergence plant response; details: for Barnyardgrass plant response rating: visual injury, 0 to 100 scale (0 no effect, 100 complete control), approx. ten days
Procedure, shortened: as §1

[4] = tested on: velvetleaf (Abutilon theophrasti); assay: Test A pre-/postemergence plant response
Procedure, shortened: as §1

[5] = tested on: pigweed (Amaranthus retroflexus); assay: Test A pre-/postemergence plant response
Procedure, shortened: as §1

corn (Zea mays) = assay: Test A pre-/postemergence plant response; details: for Corn plant response rating: visual injury, 0 to 100 scale (0 no effect, 100 complete control), approx. ten days
Procedure, shortened: as §1

[6] = tested on: large crabgrass (Digitaria sanguinalis); assay: Test A pre-/postemergence plant response; details: for Crabgrass, Large plant response rating: visual injury, 0 to 100 scale (0 no effect, 100 complete control), approx. ten days
Procedure, shortened: as §1

[7] = tested on: wheat (Triticum aestivum); assay: Test A pre-/postemergence plant response
Procedure, shortened: as §1

rice (Oryza sativa) = assay: Test B flooded paddy test; details: for Plant response rating, Flood, Rice: 250 g ai/ha, flooded paddy test, visual rating on 0 to 100 scale (0 no effect, 100 complete control) after 13 to 15 days; for Plant response rating, Rice: Flood (flooded paddy test), 13 to 15 days; for Rice plant response rating: Flood, 31 g ai/ha, scale 0 to 100 (0 no effect, 100 complete control)
Procedure, shortened: (§2)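 Each compound is added to standing floodwater (3 cm above soil, maintained) in pots of 2-leaf-stage plants; greenhouse exposure lasts 13–15 d before visual comparison with controls on a 0–100 control scale.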

[8] = tested on: barnyardgrass (Echinochloa crus-galli); assay: Test B flooded paddy test; details: for Plant response rating, Flood, Barnyardgrass: 250 g ai/ha, flooded paddy test, visual rating on 0 to 100 scale (0 no effect, 100 complete control) after 13 to 15 days; for Plant response rating, Barnyardgrass: Flood (flooded paddy test), 13 to 15 days; for Barnyardgrass plant response rating: Flood, 31 g ai/ha, scale 0 to 100 (0 no effect, 100 complete control)
Procedure, shortened: as §2

[9] = tested on: ducksalad (Heteranthera limosa); assay: Test B flooded paddy test; details: for Plant response rating, Flood, Ducksalad: 250 g ai/ha, flooded paddy test, visual rating on 0 to 100 scale (0 no effect, 100 complete control) after 13 to 15 days; for Plant response rating, Ducksalad: Flood (flooded paddy test), 13 to 15 days; for Ducksalad plant response rating: Flood, 31 g ai/ha, scale 0 to 100 (0 no effect, 100 complete control)
Procedure, shortened: as §2

[10] = tested on: umbrella sedge (Cyperus difformis); assay: Test B flooded paddy test; details: for Plant response rating, Flood, Sedge, Umbrella: 250 g ai/ha, flooded paddy test, visual rating on 0 to 100 scale (0 no effect, 100 complete control) after 13 to 15 days; for Plant response rating, Sedge, Umbrella: Flood (flooded paddy test), 13 to 15 days; for Sedge, Umbrella plant response rating: Flood, 31 g ai/ha, scale 0 to 100 (0 no effect, 100 complete control)
Procedure, shortened: as §2

[11] = tested on: Russian thistle (Salsola iberica); assay: Test F combination of compound 2 with bromoxynil, postemergence; details: 15 days, mean of three replicates, scale 0 to 100
Protocol: Test F evaluated the effect of combining compound 2 with bromoxynil. The test species for this experiment was Russian thistle (Salsola iberica), which was prepared by sowing seeds into a blend of loam soil and sand. Test chemicals were formulated in a non-phytotoxic solvent mixture that included a surfactant and applied postemergence to plants ranging in height from 12 to 20 cm. […] Treatments consisted of Compound 2, bromoxynil, or their combination, using a spray volume of 457 L/ha. Each treatment was replicated three times. Treated plants and untreated controls were maintained in a greenhouse for 15 days, after which time all plants were visually evaluated and compared to the untreated controls. […] Colby's Equation was used to determine the herbicidal effects expected from the mixtures. Colby's Equation (Colby, S.

[12] = Postemergence, 125 g ai/ha, visual injury, 0 to 100 scale (0 no effect, 100 complete control), approx. ten days
[13] = Postemergence, 500 g ai/ha, visual injury, 0 to 100 scale (0 no effect, 100 complete control), approx. ten days
[14] = Preemergence, 125 g ai/ha, 0 to 100 scale where 0 is no effect and 100 is complete control, approximately ten days
[15] = Preemergence, 500 g ai/ha, 0 to 100 scale, 0 = no effect, 100 = complete control
[16] = Postemergence, 125 g ai/ha, 0 to 100 scale where 0 is no effect and 100 is complete control
[17] = 62 g ai/ha, scale of 0 to 100 where 0 is no effect and 100 is complete control
[18] = 125 g ai/ha, scale 0 to 100, 0 is no effect, 100 is complete control

O=C(C1=C(O)C2CCC(C2)C1=O)c1cnc(-c2ccccc2)n(C2CCOCC2)c1=O (stereo not shown) [Compound 249]
40: Plant response rating, Foxtail, Giant [1, 15] | Plant response rating, Barnyardgrass [3, 15] | Plant response rating, Crabgrass, Large [6, 14]
85: Plant response rating, Sedge, Umbrella [10, 18]
30: Plant response rating, Morningglory [2, 14]
70: Plant response rating, Morningglory [2, 15]
50: Wheat plant response rating [7, 13]
65: Plant response rating, Ducksalad [9, 17]
100: Plant response rating, Morningglory [2, 12] | Morningglory plant response rating [2, 13] | Barnyardgrass plant response rating ([3]; Postemergence, 500 g ai/ha) | Plant response rating, Velvetleaf [4, 12] | Velvetleaf plant response rating [4, 13] | Pigweed plant response rating [5, 13] | Plant response rating, Pigweed [5, 15] | Crabgrass, Large plant response rating ([6]; Postemergence, 500 g ai/ha)
15: Plant response rating, Flood, Rice (rice (Oryza sativa))
10: Plant response rating, Wheat [7, 12]
20: Plant response rating, Foxtail, Giant [1, 14] | Corn plant response rating (corn (Zea mays); Postemergence, 500 g ai/ha)
80: Plant response rating, Foxtail, Giant [1, 12] | Plant response rating, Pigweed [5, 14] | Plant response rating, Crabgrass, Large [6, 15] | Plant response rating, Ducksalad [9, 18]
90: Foxtail, Giant plant response rating [1, 13] | Plant response rating, Barnyardgrass [3, 16] | Plant response rating, Velvetleaf [4, 15] | Plant response rating, Pigweed [5, 12] | Plant response rating, Crabgrass, Large [6, 16] | Plant response rating, Flood, Ducksalad [9] | Plant response rating, Flood, Sedge, Umbrella [10]
0: Plant response rating, Barnyardgrass [3, 14] | Plant response rating, Corn (corn (Zea mays); [16]) | Plant response rating, Corn (corn (Zea mays); [14]) | Plant response rating, Corn (corn (Zea mays); [15]) | Plant response rating, Wheat [7, 14] | Plant response rating, Wheat [7, 15] | Plant response rating, Rice (rice (Oryza sativa); [17]) | Plant response rating, Rice (rice (Oryza sativa); [18]) | Rice plant response rating (rice (Oryza sativa)) | Plant response rating, Flood, Barnyardgrass [8] | Plant response rating, Barnyardgrass [8, 17] | Plant response rating, Barnyardgrass [8, 18] | Barnyardgrass plant response rating [8] | Ducksalad plant response rating [9] | Sedge, Umbrella plant response rating [10]
60: Plant response rating, Velvetleaf [4, 14] | Plant response rating, Sedge, Umbrella [10, 17]

O=C(C1=C(O)C2CCC(C2)C1=O)c1cnc(-c2ccccc2)n(CC2CCCO2)c1=O (stereo not shown) [Compound 250]
0: Plant response rating, Barnyardgrass [3, 14] | Plant response rating, Corn (corn (Zea mays); [16]) | Plant response rating, Corn (corn (Zea mays); [14]) | Plant response rating, Corn (corn (Zea mays); [15]) | Plant response rating, Wheat [7, 12] | Plant response rating, Wheat [7, 14] | Plant response rating, Flood, Rice (rice (Oryza sativa)) | Plant response rating, Rice (rice (Oryza sativa); [17]) | Plant response rating, Rice (rice (Oryza sativa); [18]) | Rice plant response rating (rice (Oryza sativa)) | Plant response rating, Barnyardgrass [8, 17] | Barnyardgrass plant response rating [8] | Sedge, Umbrella plant response rating [10]
100: Foxtail, Giant plant response rating [1, 13] | Plant response rating, Morningglory [2, 12] | Morningglory plant response rating [2, 13] | Barnyardgrass plant response rating ([3]; Postemergence, 500 g ai/ha) | Plant response rating, Velvetleaf [4, 12] | Velvetleaf plant response rating [4, 13] | Plant response rating, Pigweed [5, 12] | Pigweed plant response rating [5, 13] | Plant response rating, Pigweed [5, 15] | Crabgrass, Large plant response rating ([6]; Postemergence, 500 g ai/ha)
65: Plant response rating, Sedge, Umbrella [10, 17] | Plant response rating, Sedge, Umbrella [10, 18]
90: Plant response rating, Foxtail, Giant [1, 12] | Plant response rating, Velvetleaf [4, 15] | Plant response rating, Crabgrass, Large [6, 15]
30: Plant response rating, Foxtail, Giant [1, 14] | Plant response rating, Crabgrass, Large [6, 14] | Plant response rating, Ducksalad [9, 17] | Ducksalad plant response rating [9]
50: Plant response rating, Barnyardgrass [3, 16] | Plant response rating, Velvetleaf [4, 14]
60: Plant response rating, Foxtail, Giant [1, 15] | Plant response rating, Morningglory [2, 15] | Plant response rating, Pigweed [5, 14] | Plant response rating, Crabgrass, Large [6, 16]
75: Plant response rating, Flood, Ducksalad [9]
10: Plant response rating, Morningglory [2, 14] | Plant response rating, Wheat [7, 15] | Plant response rating, Flood, Barnyardgrass [8] | Plant response rating, Barnyardgrass [8, 18]
40: Plant response rating, Barnyardgrass [3, 15]
20: Wheat plant response rating [7, 13]
70: Corn plant response rating (corn (Zea mays); Postemergence, 500 g ai/ha) | Plant response rating, Ducksalad [9, 18] | Plant response rating, Flood, Sedge, Umbrella [10]

C#Cc1ccc(-c2ncc(C(=O)C3=C(O)C4CCC(C4)C3=O)c(=O)n2C2CCCCC2)cc1 (stereo not shown) [Compound 254]
20: Plant response rating, Morningglory [2, 12] | Plant response rating, Velvetleaf [4, 15] | Plant response rating, Crabgrass, Large [6, 16]
80: Plant response rating, Flood, Sedge, Umbrella [10]
85: Plant response rating, Ducksalad [9, 17] | Plant response rating, Ducksalad [9, 18]
50: Foxtail, Giant plant response rating [1, 13] | Morningglory plant response rating [2, 13] | Plant response rating, Velvetleaf [4, 12] | Plant response rating, Crabgrass, Large [6, 15] | Plant response rating, Sedge, Umbrella [10, 17]
70: Crabgrass, Large plant response rating ([6]; Postemergence, 500 g ai/ha)
45: Ducksalad plant response rating [9]
10: Plant response rating, Foxtail, Giant [1, 12] | Plant response rating, Barnyardgrass [3, 15] | Corn plant response rating (corn (Zea mays); Postemergence, 500 g ai/ha) | Plant response rating, Barnyardgrass [8, 18]
0: Plant response rating, Foxtail, Giant [1, 14] | Plant response rating, Morningglory [2, 14] | Plant response rating, Barnyardgrass [3, 16] | Plant response rating, Barnyardgrass [3, 14] | Plant response rating, Velvetleaf [4, 14] | Plant response rating, Pigweed [5, 14] | Plant response rating, Pigweed [5, 15] | Plant response rating, Corn (corn (Zea mays); [16]) | Plant response rating, Corn (corn (Zea mays); [14]) | Plant response rating, Corn (corn (Zea mays); [15]) | Plant response rating, Crabgrass, Large [6, 14] | Plant response rating, Wheat [7, 12] | Wheat plant response rating [7, 13] | Plant response rating, Wheat [7, 14] | Plant response rating, Wheat [7, 15] | Plant response rating, Flood, Rice (rice (Oryza sativa)) | Plant response rating, Rice (rice (Oryza sativa); [17]) | Plant response rating, Rice (rice (Oryza sativa); [18]) | Rice plant response rating (rice (Oryza sativa)) | Plant response rating, Barnyardgrass [8, 17] | Barnyardgrass plant response rating [8]
100: Plant response rating, Flood, Ducksalad [9]
90: Barnyardgrass plant response rating ([3]; Postemergence, 500 g ai/ha) | Velvetleaf plant response rating [4, 13] | Pigweed plant response rating [5, 13]
30: Plant response rating, Foxtail, Giant [1, 15] | Sedge, Umbrella plant response rating [10]
15: Plant response rating, Flood, Barnyardgrass [8]
60: Plant response rating, Pigweed [5, 12]
75: Plant response rating, Sedge, Umbrella [10, 18]

N#Cc1cc(Br)c(O)c(Br)c1 [bromoxynil, reference compound]
8: Russian Thistle Obsd. (observed effect) ([11]; Bromoxynil 70 g a.i./ha alone)
13: Russian Thistle Obsd. (observed effect) ([11]; Bromoxynil 140 g a.i./ha alone)
